{"source": "paper PMC9387934", "about": "“Randomized single oral dose phase 1 study of safety, tolerability, and pharmacokinetics of Iminosugar UV-4 Hydrochloride (UV-4B) in healthy subjects” (PLoS Neglected Tropical Diseases, 2022)", "experiment": "Phase 1a single ascending dose study: UV-4 plasma concentrations and PK parameters (LC-MS/MS, noncompartmental)", "type": "in vivo", "settings": "human plasma", "description": "UV-4 ((2R,3R,4R,5S)-2-(hydroxymethyl)-1-(9-methoxynonyl)piperidine-3,4,5-triol, also called N-(9’-methoxynonyl)-1-deoxynojirimycin, or MON-DNJ) hydrochloride was evaluated in a first-in-human, randomized, single-center, double-blind, placebo-controlled, parallel group, single ascending dose Phase 1a clinical trial in healthy subjects (Figs 1 and 2, ClinicalTrials.gov Identifier NCT02061358 https://clinicaltrials.gov/ct2/show/NCT02061358). The primary objective was to determine the safety and tolerability of a single-ascending oral dose of UV-4 hydrochloride (Fig 3). […] The secondary objective was to determine PK parameters describing absorption and elimination of UV-4 following a single oral dose of UV-4 hydrochloride. Eight cohorts of eight subjects each were enrolled and completed the study. In each cohort, six subjects received UV-4 as the hydrochloride; two received placebo. Subjects were screened against study eligibility criteria up to four weeks (Days -28 to -2) before admission to the clinic (Day -1). Dosing was performed on an inpatient basis. Subjects remained in clinic for 48 hours post-dosing for PK sample collection and safety assessments and were discharged from the clinic on Day 3. Subjects returned to the clinic on Day 4 for additional safety assessments, then again on Day 9 ± 1 for a final follow-up visit.\nEligible subjects were healthy males and females, age 18–45 years, with a body mass index between 18 and 30 kg/m^2 inclusive and a minimum body weight of 60 kg. Subjects were considered healthy based on medical history, physical exam, vital signs, 12-lead electrocardiogram (ECG), clinical laboratory tests (hematology, blood chemistry, urinalysis), viral serology, and drug and alcohol screening. Male and female subjects of childbearing potential were required to use adequate contraception over the course of the clinical trial. […] Only subjects who met all inclusion and none of the exclusion criteria prior to administration of the investigational product were enrolled into the study (no exemptions were granted). A total of 64 subjects were enrolled (eight cohorts of eight subjects each). In each of the eight cohorts, six subjects were randomized to receive a single dose of UV-4 (3 to 1000 mg, depending on cohort) as the hydrochloride salt, and two subjects to receive placebo. Cohort size of six active subjects was based on analysis that increasing cohort size above six in a first-in-human study gains little in the ability to observe a drug induced event, and results in observing more events that are not related to study drug. Two of the eight subjects in each cohort (sentinel subjects; one active and one placebo) received their doses at least 48 h before the remaining subjects in each cohort.\nOn each day of use, bulk drug substance (UV-4B for solubilization, SAI Life Sciences Ltd. Telangana, India) was removed from a single-use container, weighed at the study center, and solubilized in 20 mL sterile water for injection (SWFI) (Hospira Inc. Illinois, United States of America). Weight of solid drug substance was converted to dose of UV-4 by applying purity and salt correction factor per pharmacy manual when preparing the dosing solution. UV-4B solution was administered orally with 10 mL of taste-masking agent, OraSweet-SF (Paddock Laboratories LLC, Minneapolis, United States of America) in a total volume of 30 mL, to assist in maintaining study blinding. Placebo was SWFI (20 mL) plus OraSweet-SF (10 mL). Concentrations and doses were calculated and expressed as the active free base form, UV-4. This methodology is consistent with USP<1121>, which recommends that the strength of a drug product or preparation is expressed in terms of the active moiety. Following consumption of active or placebo solution, the dosing container was rinsed with 50 mL of tap water also consumed by subjects. […]", "note": "Values joined by “and” are separate entries in the source; they are usually repeats but may differ in a detail not shown here. Equal values may be shown once.", "data": [{"compound": "COCCCCCCCCCN1C[C@H](O)[C@@H](O)[C@H](O)[C@H]1CO", "note": "[UV4]", "values": [{"measurement": "CONCENTRATION UV4", "setting": "Cohort 2, nominal day 1, nominal hour 0", "result": "<LLOQ (0.500) ng/mL"}, {"measurement": "CONCENTRATION UV4", "setting": "Cohort 3, nominal day 1, nominal hour 0", "result": "<LLOQ (0.500) ng/mL"}, {"measurement": "CONCENTRATION UV4", "setting": "Cohort 4, nominal day 1, nominal hour 0", "result": "<LLOQ (0.500) ng/mL"}, {"measurement": "CONCENTRATION UV4", "setting": "Cohort 4, nominal day 1, nominal hour 0, individual subjects", "result": "<LLOQ (0.500) ng/mL and 0.569 ng/mL and 1.02 ng/mL"}, {"measurement": "CONCENTRATION UV4", "setting": "Cohort 4, nominal day 1, nominal hour 0, subjects with all post-dose samples <LLOQ (treatment arm not given)", "result": 0.657, "unit": "ng/mL"}, {"measurement": "CONCENTRATION UV4", "setting": "Cohort 4, nominal day 1, nominal hour 0.5", "result": "<LLOQ (0.500) ng/mL"}, {"measurement": "CONCENTRATION UV4", "setting": "Cohort 4, nominal day 1, nominal hour 0.5, individual subjects", "result": "439 ng/mL and 598 ng/mL and 942 ng/mL and 1250 ng/mL and 160 ng/mL"}, {"measurement": "CONCENTRATION UV4", "setting": "Cohort 4, nominal day 1, nominal hour 0.5, subjects with all post-dose samples <LLOQ (treatment arm not given)", "result": "<LLOQ (0.500) ng/mL"}, {"measurement": "CONCENTRATION UV4", "setting": "Cohort 4, nominal day 1, nominal hour 1", "result": "<LLOQ (0.500) ng/mL"}, {"measurement": "CONCENTRATION UV4", "setting": "Cohort 4, nominal day 1, nominal hour 1, individual subjects", "result": "589 ng/mL and 571 ng/mL and 858 ng/mL and 762 ng/mL and 642 ng/mL"}, {"measurement": "CONCENTRATION UV4", "setting": "Cohort 4, nominal day 1, nominal hour 1, subjects with all post-dose samples <LLOQ (treatment arm not given)", "result": "<LLOQ (0.500) ng/mL"}, {"measurement": "CONCENTRATION UV4", "setting": "Cohort 4, nominal day 1, nominal hour 1.5", "result": "<LLOQ (0.500) ng/mL"}, {"measurement": "CONCENTRATION UV4", "setting": "Cohort 4, nominal day 1, nominal hour 1.5, individual subjects", "result": "754 ng/mL and 487 ng/mL and 860 ng/mL and 621 ng/mL and 699 ng/mL"}, {"measurement": "CONCENTRATION UV4", "setting": "Cohort 4, nominal day 1, nominal hour 1.5, subjects with all post-dose samples <LLOQ (treatment arm not given)", "result": "<LLOQ (0.500) ng/mL"}, {"measurement": "CONCENTRATION UV4", "setting": "Cohort 4, nominal day 1, nominal hour 2", "result": "<LLOQ (0.500) ng/mL"}, {"measurement": "CONCENTRATION UV4", "setting": "Cohort 4, nominal day 1, nominal hour 2, individual subjects", "result": "583 ng/mL and 406 ng/mL and 636 ng/mL and 479 ng/mL and 610 ng/mL"}, {"measurement": "CONCENTRATION UV4", "setting": "Cohort 4, nominal day 1, nominal hour 2, subjects with all post-dose samples <LLOQ (treatment arm not given)", "result": "<LLOQ (0.500) ng/mL"}, {"measurement": "CONCENTRATION UV4", "setting": "Cohort 4, nominal day 1, nominal hour 2.5", "result": "<LLOQ (0.500) ng/mL"}, {"measurement": "CONCENTRATION UV4", "setting": "Cohort 4, nominal day 1, nominal hour 2.5, individual subjects", "result": "516 ng/mL and 439 ng/mL and 447 ng/mL and 365 ng/mL and 519 ng/mL"}, {"measurement": "CONCENTRATION UV4", "setting": "Cohort 4, nominal day 1, nominal hour 2.5, subjects with all post-dose samples <LLOQ (treatment arm not given)", "result": "<LLOQ (0.500) ng/mL"}, {"measurement": "CONCENTRATION UV4", "setting": "Cohort 4, nominal day 1, nominal hour 3", "result": "<LLOQ (0.500) ng/mL"}, {"measurement": "CONCENTRATION UV4", "setting": "Cohort 4, nominal day 1, nominal hour 3, individual subjects", "result": "495 ng/mL and 428 ng/mL and 393 ng/mL and 327 ng/mL and 437 ng/mL"}, {"measurement": "CONCENTRATION UV4", "setting": "Cohort 4, nominal day 1, nominal hour 3, subjects with all post-dose samples <LLOQ (treatment arm not given)", "result": "<LLOQ (0.500) ng/mL"}, {"measurement": "CONCENTRATION UV4", "setting": "Cohort 4, nominal day 1, nominal hour 4", "result": "<LLOQ (0.500) ng/mL"}, {"measurement": "CONCENTRATION UV4", "setting": "Cohort 4, nominal day 1, nominal hour 4, individual subjects", "result": "368 ng/mL and 298 ng/mL and 302 ng/mL and 236 ng/mL and 338 ng/mL"}, {"measurement": "CONCENTRATION UV4", "setting": "Cohort 4, nominal day 1, nominal hour 4, subjects with all post-dose samples <LLOQ (treatment arm not given)", "result": "<LLOQ (0.500) ng/mL"}, {"measurement": "CONCENTRATION UV4", "setting": "Cohort 4, nominal day 1, nominal hour 6", "result": "<LLOQ (0.500) ng/mL"}, {"measurement": "CONCENTRATION UV4", "setting": "Cohort 4, nominal day 1, nominal hour 6, individual subjects", "result": "184 ng/mL and 187 ng/mL and 216 ng/mL and 141 ng/mL and 189 ng/mL"}, {"measurement": "CONCENTRATION UV4", "setting": "Cohort 4, nominal day 1, nominal hour 6, subjects with all post-dose samples <LLOQ (treatment arm not given)", "result": "<LLOQ (0.500) ng/mL"}, {"measurement": "CONCENTRATION UV4", "setting": "Cohort 4, nominal day 1, nominal hour 9", "result": "<LLOQ (0.500) ng/mL"}, {"measurement": "CONCENTRATION UV4", "setting": "Cohort 4, nominal day 1, nominal hour 9, individual subjects", "result": "101 ng/mL and 118 ng/mL and 128 ng/mL and 70.4 ng/mL and 77.3 ng/mL"}, {"measurement": "CONCENTRATION UV4", "setting": "Cohort 4, nominal day 1, nominal hour 9, subjects with all post-dose samples <LLOQ (treatment arm not given)", "result": "<LLOQ (0.500) ng/mL"}, {"measurement": "CONCENTRATION UV4", "setting": "Cohort 4, nominal day 1, nominal hour 12", "result": "<LLOQ (0.500) ng/mL"}, {"measurement": "CONCENTRATION UV4", "setting": "Cohort 4, nominal day 1, nominal hour 12, individual subjects", "result": "54.3 ng/mL and 66.4 ng/mL and 79.7 ng/mL and 42.1 ng/mL and 37.6 ng/mL"}, {"measurement": "CONCENTRATION UV4", "setting": "Cohort 4, nominal day 1, nominal hour 12, subjects with all post-dose samples <LLOQ (treatment arm not given)", "result": "<LLOQ (0.500) ng/mL"}, {"measurement": "CONCENTRATION UV4", "setting": "Cohort 4, nominal day 1, nominal hour 18", "result": "<LLOQ (0.500) ng/mL"}, {"measurement": "CONCENTRATION UV4", "setting": "Cohort 4, nominal day 1, nominal hour 18, individual subjects", "result": "18.1 ng/mL and 34.0 ng/mL and 43.3 ng/mL and 16.6 ng/mL"}, {"measurement": "CONCENTRATION UV4", "setting": "Cohort 4, nominal day 1, nominal hour 18, subjects with all post-dose samples <LLOQ (treatment arm not given)", "result": "<LLOQ (0.500) ng/mL"}, {"measurement": "CONCENTRATION UV4", "setting": "Cohort 4, nominal day 2, nominal hour 24, individual subjects", "result": "12.5 ng/mL and 26.6 ng/mL and 30.8 ng/mL and 10.2 ng/mL"}, {"measurement": "CONCENTRATION UV4", "setting": "Cohort 4, nominal day 2, nominal hour 24, subjects with all post-dose samples <LLOQ (treatment arm not given)", "result": "<LLOQ (0.500) ng/mL"}, {"measurement": "CONCENTRATION UV4", "setting": "Cohort 4, nominal day 2, nominal hour 36, individual subjects", "result": "4.31 ng/mL and 11.5 ng/mL and 12.0 ng/mL and 3.22 ng/mL"}, {"measurement": "CONCENTRATION UV4", "setting": "Cohort 4, nominal day 2, nominal hour 36, subjects with all post-dose samples <LLOQ (treatment arm not given)", "result": "<LLOQ (0.500) ng/mL"}, {"measurement": "CONCENTRATION UV4", "setting": "Cohort 4, nominal day 3, nominal hour 48, individual subjects", "result": "2.04 ng/mL and 4.82 ng/mL and 6.34 ng/mL and 1.52 ng/mL"}, {"measurement": "CONCENTRATION UV4", "setting": "Cohort 4, nominal day 3, nominal hour 48, subjects with all post-dose samples <LLOQ (treatment arm not given)", "result": "<LLOQ (0.500) ng/mL"}]}]}
